Experiment: xn = mol fraction of the nth substance listed
Details: Gas, isochoric method

C=C(F)C(F)(F)F [2,3,3,3-tetrafluoro-1-propene] + CC(C)C
Details | specific volume [m3/kg]
303.15 K, 163.5 kPa, x2 = 0.472 | 0.1698
303.15 K, 180.2 kPa, x2 = 0.606 | 0.1663
303.15 K, 246.7 kPa, x2 = 0.234 | 0.0939
303.15 K, 260.6 kPa, x2 = 0.772 | 0.1279
303.15 K, 269.3 kPa, x2 = 0.4 | 0.0942
308.15 K, 166.4 kPa, x2 = 0.472 | 0.1699
308.15 K, 183.3 kPa, x2 = 0.606 | 0.1664
308.15 K, 251.2 kPa, x2 = 0.234 | 0.094
308.15 K, 265.4 kPa, x2 = 0.772 | 0.1279
308.15 K, 274.3 kPa, x2 = 0.4 | 0.0942
308.15 K, 426.8 kPa, x2 = 0.85 | 0.0797
313.15 K, 169.2 kPa, x2 = 0.472 | 0.1699
313.15 K, 186.5 kPa, x2 = 0.606 | 0.1664
313.15 K, 255.6 kPa, x2 = 0.234 | 0.094
313.15 K, 270.2 kPa, x2 = 0.772 | 0.1279
313.15 K, 279.2 kPa, x2 = 0.4 | 0.0943
313.15 K, 435.6 kPa, x2 = 0.85 | 0.0797
318.15 K, 172.1 kPa, x2 = 0.472 | 0.17
318.15 K, 189.7 kPa, x2 = 0.606 | 0.1665
318.15 K, 260.1 kPa, x2 = 0.234 | 0.094
318.15 K, 275.1 kPa, x2 = 0.772 | 0.1279
318.15 K, 284.2 kPa, x2 = 0.4 | 0.0943
318.15 K, 444.2 kPa, x2 = 0.85 | 0.0797
323.15 K, 174.7 kPa, x2 = 0.472 | 0.17
323.15 K, 192.9 kPa, x2 = 0.606 | 0.1665
323.15 K, 264.6 kPa, x2 = 0.234 | 0.094
323.15 K, 279.9 kPa, x2 = 0.772 | 0.128
323.15 K, 289.2 kPa, x2 = 0.4 | 0.0943
323.15 K, 452.8 kPa, x2 = 0.85 | 0.0797
328.15 K, 177.5 kPa, x2 = 0.472 | 0.17
328.15 K, 196 kPa, x2 = 0.606 | 0.1665
328.15 K, 269 kPa, x2 = 0.234 | 0.094
328.15 K, 284.6 kPa, x2 = 0.772 | 0.128
328.15 K, 294.1 kPa, x2 = 0.4 | 0.0943
328.15 K, 461.2 kPa, x2 = 0.85 | 0.0797
333.15 K, 180.3 kPa, x2 = 0.472 | 0.1701
333.15 K, 199.2 kPa, x2 = 0.606 | 0.1666
333.15 K, 273.4 kPa, x2 = 0.234 | 0.0941
333.15 K, 289.4 kPa, x2 = 0.772 | 0.128
333.15 K, 299 kPa, x2 = 0.4 | 0.0944
333.15 K, 469.7 kPa, x2 = 0.85 | 0.0798
338.15 K, 183.1 kPa, x2 = 0.472 | 0.1701
338.15 K, 202.3 kPa, x2 = 0.606 | 0.1666
338.15 K, 277.8 kPa, x2 = 0.234 | 0.0941
338.15 K, 294.2 kPa, x2 = 0.772 | 0.1281
338.15 K, 303.9 kPa, x2 = 0.4 | 0.0944
338.15 K, 477.9 kPa, x2 = 0.85 | 0.0798
343.15 K, 185.9 kPa, x2 = 0.472 | 0.1701
343.15 K, 205.5 kPa, x2 = 0.606 | 0.1666
343.15 K, 282.2 kPa, x2 = 0.234 | 0.0941
343.15 K, 298.9 kPa, x2 = 0.772 | 0.1281
343.15 K, 308.8 kPa, x2 = 0.4 | 0.0944
343.15 K, 486.3 kPa, x2 = 0.85 | 0.0798
348.15 K, 188.7 kPa, x2 = 0.472 | 0.1702
348.15 K, 208.6 kPa, x2 = 0.606 | 0.1667
348.15 K, 286.6 kPa, x2 = 0.234 | 0.0941
348.15 K, 303.6 kPa, x2 = 0.772 | 0.1281
348.15 K, 313.5 kPa, x2 = 0.4 | 0.0944
348.15 K, 494.6 kPa, x2 = 0.85 | 0.0798
353.15 K, 191.5 kPa, x2 = 0.472 | 0.1702
353.15 K, 211.8 kPa, x2 = 0.606 | 0.1667
353.15 K, 291 kPa, x2 = 0.234 | 0.0941
353.15 K, 308.1 kPa, x2 = 0.772 | 0.1281
353.15 K, 318.3 kPa, x2 = 0.4 | 0.0944
353.15 K, 502.9 kPa, x2 = 0.85 | 0.0798
358.15 K, 194.3 kPa, x2 = 0.472 | 0.1703
358.15 K, 214.9 kPa, x2 = 0.606 | 0.1667
358.15 K, 295.4 kPa, x2 = 0.234 | 0.0942
358.15 K, 312.6 kPa, x2 = 0.772 | 0.1282
358.15 K, 323.2 kPa, x2 = 0.4 | 0.0945
358.15 K, 511.2 kPa, x2 = 0.85 | 0.0798
363.15 K, 197.1 kPa, x2 = 0.472 | 0.1703
363.15 K, 218 kPa, x2 = 0.606 | 0.1668
363.15 K, 299.8 kPa, x2 = 0.234 | 0.0942
363.15 K, 328.1 kPa, x2 = 0.4 | 0.0945
363.15 K, 519.5 kPa, x2 = 0.85 | 0.0799
368.15 K, 200.1 kPa, x2 = 0.472 | 0.1703
368.15 K, 221.1 kPa, x2 = 0.606 | 0.1668
368.15 K, 304.1 kPa, x2 = 0.234 | 0.0942
368.15 K, 332.9 kPa, x2 = 0.4 | 0.0945
368.15 K, 527.7 kPa, x2 = 0.85 | 0.0799
373.15 K, 202.9 kPa, x2 = 0.472 | 0.1704
373.15 K, 224.3 kPa, x2 = 0.606 | 0.1669
373.15 K, 308.5 kPa, x2 = 0.234 | 0.0942
373.15 K, 337.7 kPa, x2 = 0.4 | 0.0945
373.15 K, 535.9 kPa, x2 = 0.85 | 0.0799
378.15 K, 205.7 kPa, x2 = 0.472 | 0.1704
378.15 K, 227.5 kPa, x2 = 0.606 | 0.1669
378.15 K, 313 kPa, x2 = 0.234 | 0.0942
378.15 K, 342.6 kPa, x2 = 0.4 | 0.0945
378.15 K, 544.1 kPa, x2 = 0.85 | 0.0799
383.15 K, 208.5 kPa, x2 = 0.472 | 0.1704
383.15 K, 230.6 kPa, x2 = 0.606 | 0.1669
383.15 K, 317.4 kPa, x2 = 0.234 | 0.0943
383.15 K, 347.4 kPa, x2 = 0.4 | 0.0946
383.15 K, 552.4 kPa, x2 = 0.85 | 0.0799
